# Source: US20060241082A1, “Modulating vesicular monoamine transporter trafficking and function: a novel approach for the treatment of parkinson's disease” (priority 2002, published 2006)
# “Also recorded” adds a separate entry of the source.
# What was measured:
# [1] = Striatal tissue DA content of treated rats (HPLC); assay type: in vivo, rat; settings: rats
# Experimental: On the day of the assay, frozen tissue samples were thawed, sonicated for 3-5 s in tissue buffer (0.05 M sodium phosphate/0.03 M citric acid buffer with 15% methanol (v/v); pH 2.78), and centrifuged for 15 min at 22,000×g. Tissue pellets were retained and protein determined according to the method of Lowry et al. (1951). The supernatant was centrifuged a second time for 15 min at 22,000×g. 20 μl of supernatant were injected onto a high performance liquid chromatograph system coupled to an electrochemical detector (+0.73 V) for separation and quantitation of dopamine levels using the method of Chapin et al. (1986).
# VMAT-2 [2] = target: VMAT-2 (Mus musculus, UniProt Q8BRU6); assay: Vesicular [3H]dopamine uptake in striatal vesicles prepared from treated mice; assay type: in vivo
# VMAT-2 (Mus musculus, UniProt Q8BRU6), sequence (Q8BRU6 whole entry): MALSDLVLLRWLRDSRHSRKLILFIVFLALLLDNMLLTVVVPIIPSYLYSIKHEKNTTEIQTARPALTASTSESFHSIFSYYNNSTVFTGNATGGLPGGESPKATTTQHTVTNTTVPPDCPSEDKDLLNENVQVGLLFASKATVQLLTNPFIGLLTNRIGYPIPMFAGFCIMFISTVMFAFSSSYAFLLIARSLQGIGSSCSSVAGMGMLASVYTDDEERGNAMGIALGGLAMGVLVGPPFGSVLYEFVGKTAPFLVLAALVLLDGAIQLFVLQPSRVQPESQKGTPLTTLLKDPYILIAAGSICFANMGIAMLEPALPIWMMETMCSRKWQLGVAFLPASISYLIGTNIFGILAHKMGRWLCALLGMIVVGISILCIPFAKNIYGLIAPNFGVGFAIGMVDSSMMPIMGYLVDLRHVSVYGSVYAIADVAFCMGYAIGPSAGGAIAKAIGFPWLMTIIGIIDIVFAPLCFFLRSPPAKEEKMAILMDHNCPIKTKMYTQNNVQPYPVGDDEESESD
# Experimental: (A. E. Fleckenstein, et al., J. Pharmacol Exp Ther. (1997) 282:834-838). Briefly, fresh tissue was homogenized in ice-cold 0.32 M sucrose. The homogenate was centrifuged (800×g for 12 min; 4° C.), and the supernatant (S1) was carefully removed and centrifuged (22,000×g for 15 min; 4° C.) to obtain the synaptosomal-containing pellet (P2). The resulting P2 were resuspended and homogenized in ice-cold distilled deionized water. Osmolarity was restore by addition 25 mM HEPES and 100 mM potassium tartrate (final concentration; pH 7.5 at 4° C. respectively). […] The resultant S3 removed and MgSO4 added (final concentration of [1 mM] pH 7.5 at 4° C.) and centrifuged at 100,000×g for 45 min. The final P4 were resuspended at 50 mg/ml (original tissue wet weight).
# VMAT-2 [3] = assay: VMAT-2 immunoreactivity in striatal subcellular fractions (P2, P3, S3) of treated rats (Western blot); assay type: in vivo, rat; settings: 1 h
# Experimental: Striatal synaptosomes were prepared from rats decapitated 1 h after treatment as previously described (Fleckenstein et al., 1997). Briefly, striatal tissue was homogenized in cold 0.32 M sucrose and centrifuged (800×g for 12 min; 4° C.). The supernatant (S1) was then centrifuged (22,000×g for 15 min; 4° C.) and the resulting pellet (P2, synaptosomal fraction) was resuspended at 50 mg original wet weight/ml in cold water and a portion saved for western blot analysis. The remainder of the synaptosomal sample was centrifuged for 20 min at 22,000×g (4° C.) to pellet lysed synaptosomal membranes (P3, synaptosomal membrane fraction), which were then resuspended at 50 mg original wet weight/ml and saved for western blot analysis. Prior to resuspension of the plasmalemmal membrane fraction the supernatant (S3, vesicle-enriched fraction) was removed and saved for western blot analysis.
# Binding of VMAT-2 antibody was performed using 60 μl aliquots of synaptosomal (P2), synaptosomal membrane (P3), or vesicle-enriched (S3) preparations. Each aliquot was added to 20 μl of loading buffer (final concentration: 2.25% sodium dodecyl sulfate, 18% glycerol, 180 mM Tris base (pH 6.8), 10% β-mercapto-ethanol and bromophenol blue), boiled for 10 min, and loaded on a 10% sodium dodecyl sulfate-polyacrylamide gel. Following electrophoresis, samples were transferred to polyvinlylidene difluoride membrane, blocked with 5% nonfat dry milk in Tris-buffered saline with tween (250 mM NaCl, 50 mM Tris pH 7.4 and 0.05% Tween 20), and probed with the VMAT-2 antibody (provided by J.W.H.). Bound antibody was visualized with HRP-conjugated goat anti-rabbit antibody, and antigen-antibody complexes were visualized by chemiluminescence. Multiple exposures of blots were obtained to ensure development within the linear range of the film. Bands on blots were quantified by densitometry using Kodak 1D image-analysis software.
# Fresh striatal tissue was homogenized in ice-cold 0.32 M sucrose and centrifuged (800×g for 12 min; 4° C.). […] Resuspended tissue was aliquoted into two test tubes. One aliquot was centrifuged (22,000×g for 10 min; 4° C.) to separate plasmalemmal membranes from the synaptic vesicle-enriched fraction. The resulting supernatant (S3) contained the vesicular subcellular fraction of interest, and the pellets (P3; plasmalemmal membrane fraction) were resuspended in cold distilled deionized water.
# VMAT-2 antibody was purchased from Chemicon (Temecula, Calif.; AB1767). Binding of VMAT-2 antibody was performed using 60 μl of whole synaptosomal, plasmalemmal membrane or vesicle subcellular fractions. Samples were added to 20 μl of loading buffer (final concentration: 2.25% SDS, 18% glycerol, 180 mM Tris Base (pH 6.8), 10% […] and bromophenol blue). Approximately 60 μg protein of the whole synaptosomal fraction, 40 μg protein of the plasmalemmal membrane fraction or 20 μg protein of the vesicle subcellular fraction was loaded per well in a 10% SDS-polyacrylamide gel. Following electrophoresis, samples were transferred to polyvinylidene difluoride hybridization transfer membrane (New England Nuclear (NEN), Boston, Mass.). All subsequent incubation steps were performed at room temperature while shaking. Each membrane was first blocked for 2 h in 100 ml of tris buffer saline with tween (TBST; 250 mM NaCl, 50 mM tris pH 7.4 and 0.05% tween 20) containing 5% nonfat dry milk. Each membrane was then incubated with anti-VMAT-2 antibody (1:4000 dilution) in 13 ml of TBST with 5% milk for 1 h and then washed 5 times (2×1 min wash; 3×5 min wash) in 70 ml TBST with 5% milk.
# [4] = Vesicular DA content in purified striatal vesicles of treated rats; assay type: in vivo, rat
# Experimental: Purified striatal vesicles were prepared as described above. The resulting vesicular pellet was sonicated for approximately 5 sec in cold tissue buffer (0.05 M sodium phosphate/0.03 M citric acid buffer with 15% methanol (v/v); pH 2.5) at a concentration of 100 mg/ml (original wet weight of tissue), and centrifuged for 15 min at 22,000×g. Tissue pellets were retained and protein was determined according to the method of Lowry et al. (1951). 40 μl of supernatant was injected onto a high performance liquid chromatograph system coupled to an electrochemical detector (+0.73 V) for separation and quantitation of DA levels using the method of Chapin et al. (1986).
# VMAT-2 [5] = target: VMAT-2 (Rattus norvegicus, UniProt Q01827); assay: [3H]DHTBZ binding in purified striatal vesicles prepared from treated rats
# VMAT-2 (Rattus norvegicus, UniProt Q01827), sequence (Q01827 whole entry): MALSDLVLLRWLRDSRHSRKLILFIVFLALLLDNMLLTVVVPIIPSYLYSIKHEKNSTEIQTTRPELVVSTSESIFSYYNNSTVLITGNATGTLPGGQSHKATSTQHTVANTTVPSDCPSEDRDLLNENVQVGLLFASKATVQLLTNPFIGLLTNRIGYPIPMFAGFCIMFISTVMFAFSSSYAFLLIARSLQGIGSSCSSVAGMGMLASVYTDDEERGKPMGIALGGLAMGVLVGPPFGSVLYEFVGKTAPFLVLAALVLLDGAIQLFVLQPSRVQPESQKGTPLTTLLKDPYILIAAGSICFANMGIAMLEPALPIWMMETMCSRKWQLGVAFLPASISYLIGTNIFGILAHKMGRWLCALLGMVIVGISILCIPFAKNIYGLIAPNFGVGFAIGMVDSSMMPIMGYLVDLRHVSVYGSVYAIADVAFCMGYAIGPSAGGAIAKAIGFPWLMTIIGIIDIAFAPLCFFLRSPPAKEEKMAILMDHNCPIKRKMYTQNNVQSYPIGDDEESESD
# Experimental: Synaptic vesicles were obtained from synaptosomes prepared from rat striatum as described above. Synaptosomes were resuspended and homogenized in cold distilled deionized water. Osmolarity was restored by addition of HEPES and potassium tartrate 245 and 100 mM (final concentrations; pH 7.5), respectively. Samples were centrifuged for 20 min at 20,000×g (4° C.) to remove lysed synaptosomal membranes. MgSO4 (1 mM, final concentration) was added to the supernatant, which was then centrifuged for 45 min at 100,000×g (4° C.). The resulting vesicular pellet was resuspended in wash buffer at a concentration of 50 mg/ml (original tissue weight). […] Binding of [^3H]DHTBZ was performed as described by Teng et al. (1998). Briefly, 200 μl of the synaptic vesicle preparation (˜6 μg of protein) was incubated in wash buffer in the presence of [^3H]DHTBZ (2 nM final concentration) for 10 min at 25° C. The reaction was terminated by addition of 1 ml of cold wash buffer and rapid filtration through Whatman GF/F filters soaked in 0.5% polyethylenimine. Filters were washed three times with ice-cold wash buffer. Nonspecific binding was determined by coincubation with 20 μM tetrabenazine. All protein concentrations were determined by a BioRad protein assay (Bio-Rad, Richmond, Calif.).
# Binding of [^3H]DHTBZ was performed as described by Teng et al. (1998). Briefly, 200 μl (˜6 μg protein) of the synaptic vesicle preparation was incubated in wash buffer in the presence of [^3H]DHTBZ (2 nM final concentration except in kinetic analyses wherein 0.25-500 nM DHTBZ was employed) for 10 m in at 25° C. The reaction was terminated by addition of 1 ml cold wash buffer and rapid filtration through Whatman GF/F filters soaked in 0.5% polyethylenimine. Filters were washed three times with ice-cold wash buffer. Radioactivity trapped in filters was counted using a liquid scintillation counter. Nonspecific binding was determined by coincubation with 20 μM TBZ. All protein concentrations were determined by a Bio-Rad protein assay (Bio-Rad Inc.).
# Binding of[^3H]DHTBZ was performed as described by Teng et al. (1998). Briefly, 200 μl (˜5 μg protein) of the synaptic vesicle preparation was incubated in wash buffer in the presence of [^3H]DHTBZ (2 nM final concentration except in kinetic analyses wherein 0.25-500 nM DHTBZ was employed) for 10 m in at 25° C. The reaction was terminated by addition of 1 ml cold wash buffer and rapid filtration through Whatman GF/F filters soaked in 0.5% polyethylenimine. Filters were washed three times with ice-cold wash buffer. Radioactivity trapped in filters was counted using a liquid scintillation counter. Nonspecific binding was determined by coincubation with 20 μM TBZ. All protein concentrations were determined by a Bio-Rad protein assay (Bio-Rad Inc.).
# [6] = METH 4 x 7.5 mg/kg s.c., 2-h intervals
# [7] = methamphetamine 4 x 10 mg/kg s.c.
smiles,measurement,setting,value
"CN[C@@H](C)Cc1ccccc1 (racemic) [METH, methamphetamine]",striatal DA levels 7 d after treatment,"[1]; METH 4 x 7.5 mg/kg s.c., 2-h intervals, vs saline/saline",decreased
same,decrease in whole tissue DA content,"[1]; multiple METH, 6 h after drug treatment",60%
same,vesicular [3H]dopamine uptake,"VMAT-2 [2]; methamphetamine 4 x 10 mg/kg s.c., 2-h intervals, 1 and 24 h after treatment",rapidly decreased
same,VMAT-2 immunoreactivity in the plasmalemmal membrane fraction (P3),VMAT-2 [3]; [6],no change
same,VMAT-2 immunoreactivity in the vesicular subcellular fraction (S3),VMAT-2 [3]; [6],rapidly decreased
same,VMAT-2 immunoreactivity in the whole synaptosomal fraction (P2),VMAT-2 [3]; [6],Slight decreases; also recorded: no change
same,decrease in VMAT-2 immunoreactivity in the P2 fraction,"VMAT-2 [3]; methamphetamine 4 x 10 mg/kg s.c., 2-h intervals",25%
same,decrease in VMAT-2 immunoreactivity in the P2 fraction,"VMAT-2 [3]; methamphetamine 4 x 10 mg/kg s.c., 2-h intervals, listed as methamphetamine",40%
same,VMAT-2 immunoreactivity in the P3 fractions,VMAT-2 [3]; [7],no difference
same,decrease in VMAT-2 immunoreactivity in the S3 fraction,VMAT-2 [3]; [7],80%
same,vesicular DA levels,"[4]; METH-treated rats, 4 x 7.5 mg/kg s.c., 1 h after treatment, n=6",2.30±2.5 pg/μg protein
same,decrease in vesicular DA levels,"[4]; rats, METH 4 x 7.5 mg/kg s.c., 2-h intervals, 1 h after treatment",49%
same,decrease in vesicular DA content,"[4]; rats, multiple METH, 6 h after drug treatment",60%
same,DHTBZ binding 1 h after the last METH injection,"VMAT-2 [5]; rats, METH 4 x 7.5 mg/kg s.c., 2-h intervals",rapidly decreased
"COC(=O)C(c1ccccc1)C1CCCCN1 (stereo not shown) [MPD, methylphenidate]",total tissue DA concentrations,"[1]; 3 injections of MPD 5 mg/kg s.c., 1 h after the last MPD injection",without altering
same,total DA levels 7 d after MPD per se,[1]; MPD 5 mg/kg s.c.,did not alter
same,effect of post-treatment with a single MPD injection on the 7-d striatal DA depletions caused by METH,[1]; MPD 5 mg/kg s.c. 1 h after the last METH (4 x 7.5 mg/kg s.c.),partially reversed
same,effect of two or three MPD injections on the persistent METH-induced striatal DA depletions,"[1]; MPD 5 mg/kg s.c. at 1 and 3 h, or 1, 3 and 5 h after the last METH",completely prevented
same,vesicular dopamine uptake after a single injection,"VMAT-2 [2]; methylphenidate 10 mg/kg s.c. or cocaine 30 mg/kg i.p., vesicles prepared 1 h after treatment",increased
same,VMAT-2 immunoreactivity in the plasmalemmal membrane fraction,VMAT-2 [3]; MPD 40 mg/kg s.c. single,decreased
same,VMAT-2 immunoreactivity in the vesicular subcellular fraction,VMAT-2 [3]; MPD 40 mg/kg s.c. single,increases
same,VMAT-2 immunoreactivity in the whole synaptosomal fraction,VMAT-2 [3]; MPD 40 mg/kg s.c. single,no change
same,increase in vesicular DA levels,"[4]; rats, 3 injections of MPD 5 mg/kg s.c. over a 5 h period, 1 h after the last MPD injection",~140%
same,effect of MPD post-treatment on the METH-induced decrease in vesicular DA content,"[4]; rats, 3 injections of MPD after multiple METH regimen, 6 h after METH treatment",reversed
same,transporter Bmax for [3H]DHTBZ,VMAT-2 [5]; MPD-treated rats,28.87 fmol/μg protein
same,effect of MPD post-treatment on the METH-induced decrease in DHTBZ binding,"VMAT-2 [5]; rats, 1, 2 or 3 injections of MPD 5 mg/kg s.c. during the initial 6-h period after METH",reversed
same,DHTBZ binding after MPD treatment per se,"VMAT-2 [5]; rats, MPD 5 mg/kg s.c. injections",increased
same,binding of the VMAT-2 ligand [3H]DHTBZ after a single MPD administration,"VMAT-2 [5]; rats, MPD 5-40 mg/kg s.c., 1 h",increase
